Where two headings read alike, the source gives them in different places.
Experiments:
[1] = tested on: endothelial nitric oxide synthase (eNOS); assay: Uterine artery eNOS immunoblotting / immunofluorescence after in vivo treatment; set-up: species or system rat; conditions: for Total eNOS levels in uterine artery: ethanol and/or PA treatment; for P-Ser1177 eNOS level in uterine artery: ethanol/alcohol-exposed vs control, P<0.05
Method: (§1) The dams were then assigned into experimental groups. […] Rats were euthanized by decapitation while under isoflurane anesthesia.
Immunoblotting was performed using standard laboratory procedures. Following euthanasia, the uterine arteries were isolated by separating the vein, and cleaning the adipose tissues in HBS, before flash freezing for immunoblot analysis. Tissues were first homogenized using a 4° C. cooled bead homogenizer (Benchmark Scientific, Sayreville, NJ, USA) and then quantified using BCA protein quantification assay. Next, 20 μg of the uterine artery sample protein was then loaded on to 4-20% mini-protean TGX gels (Bio-rad, Hercules, CA, USA). Following transfer to a PVDF membrane, P-Ser1177 eNOS (Novus Biologicals, Centennial, CO, USA), total eNOS (BD Biosciences, Franklin Lakes, NJ, USA), and β-Actin (Sigma Aldrich, St. Louis, MI, USA) were probed. Densitometry analysis was performed using AzureSpot (Azure Biosystems, Dublin, CA, USA).
Immunofluorescence assessments were performed using previously published protocols. In brief, maternal uterine arteries were sectioned at 8 μm with a Leica cryostat (CM1860, Leica Biosystems, Buffalo Grove, IL, USA). Sections were subsequently fixed with ice-cold methanol (30 min, −20° C.), and then rinsed in PBS, and incubated in 10% normal serum (60 min). This was followed by incubation with (1:100; p1177-eNOS; Cell Signaling and 1:250; total eNOS, BD Biosciences) primary antibody overnight at 4° C. in a humidified chamber. The sections were then incubated with goat anti-rabbit IgG secondary antibody (Alexa Fluor 488, Invitrogen, Carlsbad, CA, USA), for 1 h at room temperature. Digital images were captured with an Olympus BX63 […] that was equipped with U-HGLGPS fluorescent light source, ORCA-Flash 4.0 LT camera, Hamamatsu Photonics (Hamamatsu, Japan), and Olympus cellSens Dimension software Version 3.2 (Olympus, Tokyo, Japan).

[2] = tested on: uterine artery; assay: Pressure arteriography of uterine artery (ACh-induced vasodilation) after in vivo treatment; set-up: species or system rat; conditions: ethanol/alcohol group vs control, p<0.05
Method: as §1
Following euthanasia, the entirety of the uterus was excised and immediately placed in ice-cold HBS for pressure arteriography experiments. Uterine artery functional assessments were performed following uterine artery isolation using established procedures. Briefly, the uterine horn was transferred to a 200 mm petri dish with solidified Sylgard to facilitate tissue isolation and cleaning in ice-cold HBS. A 3-5 mm segment of the primary uterine artery was dissected between arterial bifurcations from the approximate center of the uterine horn. Surrounding adipose and connective tissues were carefully removed from the uterine artery segment. […] Intramural pressure was then increased to mimic in vivo pressures at 90 mm Hg, at which pressure the ACh concentration responses were measured. Vessels were pre-constricted with 10^−6 M Tbx as determined previously. […] The above treatment was followed by the administration of three-fold increasing concentrations of ACh from 10^−10 M up to 10^−5 M. Vascular response was recorded by established methods using Ionwizard software version 6.6 (Ionoptix LLC, Westwood, MA, USA) for at least 5 min, or until arterial diameter stabilized.

[3] = tested on: pregnant Sprague-Dawley rats; assay: Maternal and fetal growth assessment in FASD rat model (binge alcohol with or without in vivo PA)
Method: (§2) Molecule administered: PA (#840857C, Avanti Polar Lipids) was air-dried under a gentle stream of nitrogen gas and resuspended in 1% BSA to make a 10^−2 M stock solution. PA was administered to pregnant rats in vivo at a dose of 4.5 mg/kg/day for alcohol dose of 4.5 g/kg body weight from gestation day 4 through 10 and 6 mg/kg/day for alcohol dose of 6 g/kg body weight from gestation day 11 through 19 or 20.
(§3) Timed pregnant Sprague-Dawley rats (8-12 weeks old), were purchased from Charles River (Wilmington, MA, USA) and arrived on GD 4, where they were housed in a temperature-controlled room (23° C.) with a 12:12 h light-dark cycle. The dams were acclimatized for a day before weighing and handling. The dams were then assigned into experimental groups. Four in vivo treatment groups were utilized: (1) a nutritional pair-fed control group (control), that served as a control for nutrition and for the gavage procedure. To control for the calories derived from alcohol, these pair-fed control rats were administered isocaloric maltose-dextrin (once-daily) via orogastric gavage. […] (3) An in vivo phosphatidic acid (PA) control group (control PA), to control for the in vivo PA supplement. […] (4) A binge alcohol in vivo PA group (alcohol PA), that received alcohol via intragastric gavage similar to those in the binge alcohol group along with the PA supplement. Daily PA doses were calculated based on the dam's weight at the time of administration (PA (μL)=0.2×dam weight (g) GD 5-10; PA (μL)=0.2105×weight (g) GD 11-19). Intake of food in the alcohol treatment group was measured, and an equivalent amount of food was given to the pair-fed control dams to account for additional nutritional factors. Rats were euthanized by decapitation while under isoflurane anesthesia.
(§4) Maternal weights and fetal weights were measured on GD 20-21, one day after the last treatment on GD 19-20, following euthanasia.
(§5) Maternal weight and fetal weight (unit of analysis is a dam or litter) were analyzed using two-way mixed ANOVA with alcohol as the between factor and PA as the within factor. Normality was tested using the Shapiro-Wilk normality test where appropriate. […] The data were considered significant if the p value was <0.05.

[4] = tested on: pregnant Sprague-Dawley rats; conditions: rat, in vivo
Method: as §2, §3, §4, §5

[5] = fetuses from ethanol-fed rats, P<0.05

Row | P-Ser1177 eNOS level in uterine artery [1] | P-Ser1177 eNOS level in uterine artery ([1]; listed as Alcohol) | P-Ser1177 eNOS level in uterine artery ([1]; listed as Ethanol) | Acetylcholine-induced uterine artery relaxation (vasodilation) [2] | Acetylcholine-induced uterine artery relaxation (vasodilation) ([2]; listed as alcohol) | Average litter size ([3]; alcohol group) | Mean fetal weights ([3]; alcohol group vs control, p<0.0001) | Crown-rump length lower than pair-fed control [3, 5] | Mean fetal weight lower than pair-fed control [3, 5] | Compound | Total eNOS levels in uterine artery [1] | Total eNOS levels in uterine artery ([1]; listed as alcohol) | Maternal body weights ([3]; GD 20-21, control, alcohol, control PA, alcohol PA groups) | Maternal body weights [4]
1 | decreases | significantly reduced | significantly reduced | significantly impaired | significantly decreased | 10.83±1.33 | significantly lower | ~8% | ~9% | CCO [ethanol] | Neither ethanol treatment nor PA affected total eNOS levels | Neither alcohol nor PA had any effect on total eNOS | did not differ among the treatment groups | –
2 | – | – | – | – | – | – | – | – | – | L-α-phosphatidic acid [PA] | – | – | – | did not differ among the treatment groups

Reference: US20240415855A1, “COMPOSITIONS AND METHODS RELATING TO USE OF PHOSPHATIDIC ACID TO RESCUE FETAL ALCOHOL SPECTRUM DISORDER (FASD) GROWTH RESTRICTION AND BLOOD VESSEL CONSTRICTION” (Wayne State University, priority 2023, published 2024)
